From publication PMC5037430 (Scientific Reports, 2016)
Read-outs that look alike come from different tables or passages of the source.

Target: T1, glycolate oxidase (GO); hydroxyacid oxidase 1 (HAO1) (Homo sapiens, UniProt Q9UJM8)
T1 construct: recombinant full-length human HAO1
T1 sequence (Q9UJM8 1-370): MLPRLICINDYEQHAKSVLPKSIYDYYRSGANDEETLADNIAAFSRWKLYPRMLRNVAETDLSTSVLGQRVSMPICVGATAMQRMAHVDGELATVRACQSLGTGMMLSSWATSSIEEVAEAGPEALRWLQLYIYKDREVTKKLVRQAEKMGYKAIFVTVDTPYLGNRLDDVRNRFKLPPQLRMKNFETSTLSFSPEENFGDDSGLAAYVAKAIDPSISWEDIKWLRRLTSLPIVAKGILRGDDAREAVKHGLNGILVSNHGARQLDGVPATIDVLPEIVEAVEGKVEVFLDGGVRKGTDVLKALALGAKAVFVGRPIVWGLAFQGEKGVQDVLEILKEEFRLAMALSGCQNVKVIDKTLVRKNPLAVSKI
Experiment: hydrogen peroxide-Amplex red GO enzymatic assay; partial inhibition, less than […] at […]
Format: biochemical

IC50 (read-out: IC50) | SMILES | IC50
> 100 µM | CC[C@H](NC(=O)c1c(C)c(-c2ccccc2)nc2ccccc12)c1ccccc1 [SB 222200] | –
– | CCCc1nc2c(C)cc(-c3nc4ccccc4n3C)cc2n1Cc1ccc(-c2ccccc2C(=O)O)cc1 [Telmisartan] | > 100 µM
